Columns and labels:
Assay type in all cases: cell-based
[1] = test system: Colo205-LUC-TCF/LEF M1 reporter cell line (Wnt pathway); test: Colo205-LUC-TCF/LEF M1 reporter gene (luciferase) inhibition; details: 4 hours incubation, luciferase readout
Excerpt: Colo205 cell line (Cell Bank of Chinese Academy of Sciences, Cat #TCHu102) was purchased from the Cell Bank of Chinese Academy of Sciences. After expansion and subculture, in the exponential growth phase of the cells, transfection with lipo3000 liposome transfection with TCF/LEF transcription factors Driven luciferase reporter plasmid (Promega). […] The plasmid carries a resistance gene for resistance screening. Transfection was carried out in 10 cm culture dishes using conventional complete medium without resistance. After 2 days, the medium with resistance was replaced, and the culture was continued. After that, the resistant medium was replaced every 2 days, and the suspended cells were discarded. The original medium was centrifuged to remove cells and debris and retained as an adaptive medium. When the cells covered the culture dish, the cells were digested, counted, and passaged in a 96-well plate, so that the average number of cells contained in each well was 1.5/well, and the adaptive medium was used for passage. The rest of the cells were frozen. After subculture, culture for 4 hours to allow the cells to adhere to the wall, and then observe the number of cells in each well under a microscope. Wells with only 1 cell per well were labeled as monoclonal wells. Afterwards, normal culture was performed, and the culture medium was replaced every 2 days, and observed. There are holes where the monoclonal cells continue to grow in the early stage, and they are labeled twice, and can be replaced with normal resistant medium. When a monoclonal well was overgrown with a 96-well plate, it is digested and passaged to a 24-well culture plate. After the 24-well plate is overgrown, it is passaged to a 96-well plate and a 6-well plate. The cells in a 96-well plate are at least 6 wells, of which 3 wells were added with known Wnt inhibitors, and the other 3 wells were not treated. After 24 hours, the cells in the 96-well plate were added with a fluorescence detection reagent to detect the fluorescence intensity. Cell lines with fluorescent expression when not treated and decreased fluorescent light after inhibition were selected and further cultured. The Colo205-LUC-TCF/LEF-M1 cell line is one of the cell lines screened above. Its growth curve, cell shape, and cell growth state are similar to those of the original Colo205 cells, and the ratio of the fluorescent signals of the inhibitor-treated and untreated cells is the largest among all cell lines, and the ratio can reach 4-5 times when inhibited at 4 hours, which was completely suitable for the screening of Wnt inhibitors in the later stage.
The Colo205-LUC-TCF/LEF M1 cell line is a reporter tool cell stably transfected with the pGL4.49-LUC2-TCF/LEF vector. The β-catenin Wnt pathway is continuously activated. After adding the inhibitor, the Wnt pathway is inhibited. The expression of firefly luciferase regulated by the[…] cis-element decreased, and after adding the detection substrate, the detected light signal decreased accordingly, so as to detect the inhibitory effect of the compound.
To a 96-well cell culture plate, add 100 uL of the compound with a maximum concentration of 20 uM to each well, and make a 3-fold serial dilution of the compound concentration. Then 10,000 colo205 cells stably transfected with the reporter gene and 100 uL medium were inoculated into each well, and corresponding positive and negative control wells were made at the same time. Put the cells in a 5% CO2 incubator and incubate at 37° C. for 4 hours. After 4 hours, remove the culture medium, add 100 uL of reagent (Promega) containing the corresponding firefly luciferase substrate to each well, and measure the activity of luciferase reporter gene. Luminescence intensity was read with SpectraMax in full wavelength mode. […]

[2] = test system: Colo205; test: Proliferation inhibition, Wnt mutant cell line Colo205; details: Homo sapiens, COLO 205; Colo205, Wnt pathway-dependent, 96 hours; read-out: Antiproliferative IC50 Colo205
Excerpt: (§1) The cell lines used in the experiment are Colo205 and DU4475 cell lines whose Wnt pathway is continuously activated and whose proliferation is Wnt pathway-dependent; while the BELA and RKO cell lines, whose Wnt pathway is not activated under normal circumstances and the proliferation is independent of Wnt pathway, as control cell lines. It is Judged that the inhibitory effect of the compound of the present invention on Wnt-dependent proliferation is not caused by other non-specific toxicity.
(§2) Treat the Colo205, Du4475, HELA and RKO cell lines cultured in their respective mediums in the logarithmic growth phase, collect the cells and prepare a uniform cell suspension of known concentration, and then add it to the 96-well cell culture plate Cell suspension, so that each well contains 1000 cells. Put it into a 5% CO2 incubator and incubate at 37° C. for 20-24 h. On the second day, the fully dissolved, 3-fold serially diluted compound was added to each cell culture well, so that the final maximum concentration in the cell culture well was 20 uM, and the culture was continued for 96 hours. In this test, Promega's cell viability detection test is used for detection. The more the cells proliferate, the stronger the final signal intensity will be. The detection instrument is SpectraMax, full wavelength mode. The wells only added with DMSO were used as positive control wells, and the wells that were not inoculated with cells were used as negative control wells. […] The IC50 value of cell proliferation inhibition was used to evaluate the inhibitory effect of the compound on the Wnt pathway and the toxic effect on normal cells (Table 2).

[3] = test system: RKO; test: Proliferation inhibition, non-Wnt mutant control cell line RKO; details: Homo sapiens, Wnt-independent control cell line, 96 hours, read-out: Antiproliferative IC50 RKO
Excerpt: as §1, §2

SMILES | IC50 [1] | IC50 [2] | IC50 [3]
C[C@H]1Cn2cc(F)c3nc(NCc4cnn(Cc5ccc(F)cc5)c4)nc(c32)N1C [64 (W23)] | 0.041 µM |  | 
C[C@H]1Cn2ccc3nc(NCc4cnn(CCc5ccc(F)cc5)c4)nc(c32)N1C [66 (W43)] | 0.011 µM |  | 
FC1(F)C[C@H]2Cn3ccc4nc(NCc5cnn(Cc6ccc(C(F)(F)F)nc6)c5)nc(c43)N2C1 [69 (W50)] | 0.021 µM |  | 
[2H]C([2H])([2H])N1c2nc(NCc3cnn(Cc4ccc(C(F)(F)F)nc4)c3)nc3ccn(c23)C[C@@H]1C [73 (W85)] | 0.024 µM |  | 
CN1CC2(CC2)Cn2ccc3nc(NCc4cnn(Cc5ccc(C(F)(F)F)nc5)c4)nc1c32 [76 (W83)] | 0.067 µM |  | 
[2H]C([2H])([2H])OC[C@H]1C(=O)N2CCCc3nc(NCc4ccc(Oc5cnc(C(F)(F)F)nc5)nc4)nc(c32)N1C([2H])([2H])[2H] [132 (W383), (S)-5-((methoxy-d3)methyl)-4-(methyl-d3)-2-(((6-((2-(trifluoromethyl)pyrimidin-5-yl)oxo)pyridin-3-yl)methyl)amino)-4,5,9,10-tetrahydro-6H,8H-pyrido[3,2,1-de]pteridin-6-one] | 0.042 µM | 0.025 µM | > 10 µM
CN1c2nc(NCc3ccc(Oc4ccc(C(F)(F)F)nc4)nc3)nc3c2N(CCC3)C(=O)[C@]1(C)CO [133 (W377), (S)-5-(hydroxymethyl)-4,5-dimethyl-2-(((6-((6-(trifluoromethyl)pyridin-3-yl)oxo)pyridine-3-yl)methyl)amino)-4,5,9,10-tetrahydro-6H,8H-pyrido[3,2,1-de]pteridin-6-one] | 0.058 µM | 0.035 µM | > 10 µM
C[C@H]1C(=O)N2CCCc3nc(NCc4ccc(Oc5ccc(C6CC6)nc5)nc4)nc(c32)N1C [137 (W335), (S)-2-(((6-((6-cyclopropylpyridin-3-yl)oxo)pyridin-3-yl)methyl)amino)-4,5-dimethyl-4,5,9,10-tetrahydro-6H,8H-pyrido[3,2,1-de]pteridin-6-one] |  | 0.138 µM | > 10 µM
CN1c2nc(NCc3ccc(Oc4cnc(C(F)(F)F)nc4)nc3)nc3c2N(CCC3)C(=O)[C@]1(C)CO [140 (W376), (S)-5-(hydroxymethyl)-4,5-dimethyl-2-(((6-((2-(trifluoromethyl)pyrimidin-5-yl)oxo)pyridine-3-Base)methyl)amino)-4,5,9,10-tetrahydro-6H,8H-pyrido[3,2,1-de]pteridin-6-one] |  | 0.049 µM | > 10 µM
CCOC[C@H]1C(=O)N2CCCc3nc(NCc4ccc(Oc5cnc(C(F)(F)F)nc5)nc4)nc(c32)N1C [155 (W347)] | 0.077 µM | 0.088 µM | > 10 µM
CN1c2nc(NCc3ccc(Oc4cnc(C(F)(F)F)nc4)nc3)nc3c2N(CCC3)C(=O)C12CC2 [175 (W327)] | 0.028 µM |  | 
CN1c2nc(NCc3ccc(Oc4ccc(C(F)(F)F)nc4)nc3)nc3c2N(CCC3)C(=O)C12CCOC2 (stereo not drawn) [207 (W357)] |  | 0.084 µM | > 10 µM
CN1c2nc(NCc3ccc(Oc4ccc(C(F)(F)F)nc4)nc3)nc3c2N(CCC3)C(=O)[C@]12CCOC2 [209 (W405)] |  | 0.03 µM | > 10 µM
COCCC1C(=O)N2CCCc3nc(NCc4ccc(Oc5cnc(C(F)(F)F)nc5)nc4)nc(c32)N1C (stereo not drawn) [210 (W371)] |  | 0.06 µM | > 10 µM
COCC[C@H]1C(=O)N2CCCc3nc(NCc4ccc(Oc5cnc(C(F)(F)F)nc5)nc4)nc(c32)N1C [211 (W390)] | 0.043 µM | 0.023 µM | > 10 µM
COCCC1C(=O)N2CCCc3nc(NCc4ccc(Oc5ccc(C(F)(F)F)nc5)nc4)nc(c32)N1C (stereo not drawn) [213 (W355)] | 0.069 µM | 0.053 µM | > 10 µM

SMILES | IC50 [1] | IC50 [2] | IC50 [3]
COCC[C@@H]1C(=O)N2CCCc3nc(NCc4ccc(Oc5ccc(C(F)(F)F)nc5)nc4)nc(c32)N1C [215 (W391)] |  | 0.053 µM | > 10 µM
CN1c2nc(NCc3ccc(Oc4ccc(C(F)(F)F)nc4)nc3)nc3c2N(CCC3)C(=O)C12CCOCC2 [216 (W352)] |  | 0.039 µM | > 10 µM
CN1c2nc(NCc3ccc(Oc4cnc(C(F)(F)F)nc4)nc3)nc3c2N(CCC3)C(=O)C12CCOCC2 [217 (W359)] |  | 0.057 µM | > 10 µM
CN1c2nc(NCc3ccc(Oc4cnc(C(F)(F)F)nc4)nc3)nc3c2N(CCC3)C(=O)[C@@H]1C1CCOCC1 [218 (W339)] | 0.03 µM | 0.017 µM | > 10 µM
CN1c2nc(NCc3ccc(Oc4ccc(C(F)(F)F)nc4)nc3)nc3c2N(CCC3)C(=O)[C@@H]1C1CCOCC1 [219 (W338)] | 0.031 µM | 0.01 µM | > 10 µM
[2H]C([2H])([2H])N1c2nc(NCc3ccc(Oc4ccc(C(F)(F)F)nc4)nc3)nc3c2N(CCC3)C(=O)[C@]1(C)CO [220 (W398)] |  | 0.048 µM | > 10 µM
[2H]C([2H])([2H])N1c2nc(NCc3ccc(Oc4cnc(C(F)(F)F)nc4)nc3)nc3c2N(CCC3)C(=O)[C@]1(C)CO [221 (W399)] |  | 0.043 µM | > 10 µM
CN1c2nc(NCc3ccc(Oc4cc(C(F)(F)F)nn4C)nc3)nc3c2N(CCC3)C(=O)[C@@H]1CO [222 (W402)] |  | 0.061 µM | > 10 µM
CN1c2nc(NCc3ccc(Oc4cc(C(F)(F)F)nn4C)nc3)nc3c2N(CCC3)C(=O)[C@]1(C)CO [223 (W403)] | 0.059 µM | 0.035 µM | > 10 µM
CN1c2nc(NCc3ccc(Oc4cnc(C(F)(F)F)nc4)nc3)nc3c2N(CCC3)C(=O)[C@@]12CCOC2 [224 (W406)] |  | 0.063 µM | > 10 µM
CN1c2nc(NCc3ccc(Oc4cnc(C(F)(F)F)nc4)nc3)nc3c2N(CCC3)C(=O)[C@]12CCOC2 [225 (W407)] |  | 0.057 µM | > 10 µM
CCn1nc(C(F)(F)F)c(C2CC2)c1Oc1ccc(CNc2nc3c4c(n2)N(C)[C@@](C)(CO)C(=O)N4CCC3)cn1 [233 (W419)] |  | 0.052 µM | > 10 µM
C[C@H](O)[C@@]1(C)C(=O)N2CCCc3nc(NCc4ccc(Oc5ccc(C(F)(F)F)nc5)nc4)nc(c32)N1C [239 (W427)] | 0.036 µM | 0.0283 µM | > 10 µM
C[C@H]1C(=O)N2CCCc3nc(NCc4cnn(Cc5ccc(C(F)(F)F)nc5)c4)nc(c32)N1C [Example 1, (S)-4,5-dimethyl-2-(((1-((6-(trifluoromethyl)pyridine-3-yl)methyl)-1H-pyrazol-4-yl)methyl)amino)-4,5,9,10-tetrahydro-6H,8H-pyrido[3,2,1-de]pteridin-6-one] | 0.083 µM |  | 
C[C@H]1CN(C)c2nc(NCc3ccc(CCC(F)(F)F)nc3)nc3ccn1c23 [Example 20, (S)-4,6-dimethyl-N-((6-(3,3,3-trifluoropropyl)pyridin-3-yl)methyl)-5,6-dihydro-4H-pyrrole And[3,2,1-de]pteridin-2-amine] | 0.093 µM |  | 

— patent US12622917B2, “High-activity Wnt pathway inhibitor compound” (ADLAI NORTYE BIOPHARMA CO., LTD., priority 2020, dated 2026)
